In US11467158B2, “BRCA1 mutations as predictive markers for topoisomerase inhibitions” (BOSTON MEDICAL CENTER CORPORATION, priority 2012, dated 2022):
“Also recorded” adds a separate entry of the source. Blank lines part the entries; values can stand above or below the compound they belong to. Non-standard residues stand in square brackets, D forms with d. No end group written: not given here. pS = N[C@@H](COP(=O)(O)O)C(=O)O

Columns and labels:
[1] = tested on: topo I; experiment: topo I degradation in cells (immunoblot with anti-topo I); format: cell-based
Protocol: (§1) Phosphorylated GST-topo I was incubated with purified E1, UbcH5c (E2), and BRCA1/BARD1 (E3) (lane2). Phosphorylated topo I was also incubated with E1 and UbcH5c (E2) only as control (lane 1). Reactions were carried out in ubiquitination buffer at 37° C. for 30 min. The reaction products were analyzed by immunoblot analysis with anti-ubiquitin. […] Immunoprecipitates were analyzed by immunoblot analysis with anti-ubiquitin. […] Control and treated cells were harvested and lysed. Cell lysates were analyzed by immunoblot analysis with anti-topo I (upper panel) and anti-β-actin (lower panel).
(§2) Cells were harvested after designated time and lysed. The cell lysates were analyzed by immunoblot analysis with anti-topo I (upper panel) and anti-β-actin for equal protein loading (lower panel). An infrared secondary antibody was used and a LICOR system was used to visualize the florescence. […] Immunoprecipitates were analyzed by immunoblot analysis with anti-Pan ubiquitin. […] The cell number was counted after 12 hours using a Celigo system. The cells were treated with 10 and 25 nM SN-38 for 72 hours. The cells were counted again using the Celigo system and growth inhibition was determined using a formula described in the materials and methods section.
(§3) Control and treated cells were harvested and lysed. Cell lysates were analyzed by immunoblot analysis with anti-topo I (upper panel) and anti-β-actin (lower panel). […] Immunoprecipitates were analyzed by immunoblot analysis with anti-ubiquitin.
(§4) To further validate the findings in cells the inventors used BRCA1 E3 ligase deficient HCC1937 cells. The cells are sensitive to DNA-damaging agents and have impaired BRCA1 E3 ligase function. The inventors have used HCC1937 cells and stably expressed BRCA1 (HCC1937-BRCA1) to restore E3 ligase function. Both, HCC1937 and HCC1937-BRCA1 cells were treated with CPT for 60 minutes and drug free for 30 minutes in the presence of MG132. Control and CPT treated cells were lysed and subjected to immunoprecipitation with anti-topoI. The immunoprecipitates were analyzed by immunoblot analysis with anti-ubiquitin. […] Topo I is degraded in the response to CPT by ubiquitin proteosomal pathways, and the rate of degradation at least in part determines anti neoplastic activity of the drug. To determine the correlation between topo I degradation and CPT efficacy in HCC1937 and HCC1937-BRCA cells, were treated with […] and topo I degradation (FIG. 2C) and cell growth inhibition assays were performed (FIG. 2D).
(§5) To understand the topo I ubiquitination and CPT response, based on the inventors previous early screen, the inventors selected four triple negative breast cancer cell lines with differential rate of UPP mediated topo I degradation. […] To determine the level of CPT induced ubiquitination, control and treated cells were lysed and cell lysates were subjected to immunoprecipitation with anti-topoI. The immunoprecipitates were analyzed by immunoblot analysis with anti-ubiquitin. […] To understand the possible correlation between ubiquitination dependent topo I degradation and CPT response, cells were treated with different concentration of SN-38 and analyzed for percent growth inhibition. […] The highest percent of growth inhibition was detected in BT20 (FIG. 3C). Taken together, rate of topo I degradation by UPP determines the drug sensitivity in triple negative breast cancer cells.

[2] = tested on: BT20 cells; experiment: TNBC cell growth inhibition, 72 hours (Celigo); format: cell-based
Protocol: as §2, §5

[3] = tested on: SUM52 cells; experiment: TNBC cell growth inhibition, 72 hours (Celigo); format: cell-based; conditions: 10 and 25 nM
Protocol: as §2, §5

[4] = tested on: BT549 cells; experiment: TNBC cell growth inhibition, 72 hours (Celigo); format: cell-based
Protocol: as §2, §5

[5] = tested on: MDAMB231 cells; experiment: TNBC cell growth inhibition, 72 hours (Celigo); format: cell-based
Protocol: as §2, with “The cells were treated with 10 and 25 nM SN-38 for 72 hours.” left out
as §5, with “Taken together, rate of topo I degradation by UPP determines the drug sensitivity in triple negative breast cancer cells.” left out

[6] = tested on: topo I; experiment: topo I ubiquitination in cells (anti-topoI immunoprecipitation, anti-ubiquitin immunoblot); format: cell-based
Protocol: as §1, §2, §3, §4, §5

[7] = tested on: HCC1937 cells; experiment: percent cell growth inhibition after 72 hours (Celigo); format: cell-based
Protocol: as §1, §3, §4

[8] = tested on: HCC1937-BRCA1 cells; experiment: as above; format: cell-based
Protocol: as §1, §3, §4

[9] = molecular target: T1, BRCA1-BRCT domain (Homo sapiens, UniProt P38398); experiment: fluorescence polarization of Topo I phosphopeptide with GST-BRCT; format: binding; conditions: peptide labeled with Alexa Fluor 532, final dilution 1:1000 or 1:500, varying GST-BRCT concentrations
T1 construct: made in house; host or cells: E. coli Rosetta (DE3) pLysS (Novagen)
T1 sequence (P38398 1650-1863): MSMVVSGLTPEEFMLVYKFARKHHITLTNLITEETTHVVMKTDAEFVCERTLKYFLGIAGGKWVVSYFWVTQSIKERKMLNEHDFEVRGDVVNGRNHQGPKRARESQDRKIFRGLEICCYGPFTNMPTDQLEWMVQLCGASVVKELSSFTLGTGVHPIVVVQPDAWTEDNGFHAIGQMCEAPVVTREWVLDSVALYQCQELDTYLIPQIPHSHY
Protocol: Phosphopeptide labeled with Alexa Fluor 532 was incubated at a final dilution of either 1:1000 or 1:500 with varying concentrations of GST-BRCT or buffer alone. Polarization of the light emitted by the labeled peptide was detected on a Tecan Infinite M1000 pro and is plotted as a function of protein concentration.
An exemplary assay to identify a mutation in the BRCT domain which decreases the binding affinity of the BRCT domain for the phospho-ser10-topo I polypeptide was performed as follows (see FIG. 8): Topo I phosphopeptide NDpSQIEADFRLNDC (SEQ ID NO: 4) was conjugated to Alexa Fluor 532 (Invitrogen) via maleimide reaction with the C-terminal cysteine, as per manufacturer's protocol. Labeled peptide was separated from the reaction mixture by RP-HPLC using C-18 media and eluted with 30% acetonitrile. The partially purified peptide was lyophilized and resuspended in TBS with 1 mM DTT. GST-BRCT was expressed in Rosetta (DE3) pLysS (Novagen) and purified by standard methods. The purified protein was eluted from the GS beads and dialyzed against TBS containing 1 mM DTT and 5% glycerol prior to storage at −80°. […] 20 μl from each dilution was then transferred to each of 4 wells in a 384-well black plate, and FP was read on a Tecan Infinite M1000 pro and plotted as mP as a function of protein concentration.

[10] = tested on: HIV-1; conditions: acute and chronic infections, in vitro; cited from earlier work
[11] = tested on: leukemia L-1210; conditions: experimentally transplanted leukemia L-1210 in mice; cited from earlier work
[12] = tested on: Walker 256 tumor; conditions: experimentally transplanted Walker 256 tumor in rats; cited from earlier work
[13] = tested on: biosynthesis of nucleic acids; conditions: cited from earlier work

Compound: CCc1c2c(nc3ccc(O)cc13)-c1cc3c(c(=O)n1C2)COC(=O)[C@]3(O)CC [SN-38]
topo I degradation ([1]; HCC1937-BRCA1 cells): degrade topo I
topo I degradation ([1]; HCC1937 cells): do not degrade topo I
percent growth inhibition (compared among four TNBC cell lines) ([2]; BT20 cells): highest
sensitivity to the drug (growth inhibition) ([2]; BT20 cells (printed BT2020)): very sensitive
percent growth inhibition (compared among four TNBC cell lines) [3]: least
sensitivity to the drug (growth inhibition) [4]: very sensitive
cell growth under drug ([5]; 50 nM): cells were growing
sensitivity to the drug (growth inhibition) ([5]; 72 hours): remained resistant
topo I ubiquitination ([6]; HCC1937-BRCA1 cells (wild type BRCA1 restored), treated 60 minutes, drug free 30 minutes, MG132): pronounced topo I ubiquitination
cell growth inhibition (sensitivity to the drug) [7]: sensitive
cell growth inhibition (sensitivity to the drug) [8]: sensitive

binding to GST-BRCT (fluorescence polarization) [9]: direct interaction
binding to GST-BRCT (fluorescence polarization) ([9]; listed as topo I phosphopeptide): binds directly
Compound: NDpSQIEADFRLNDC (SEQ ID NO: 4) (ND[pS]QIEADFRLNDC; listed as Homo sapiens) [Topo I phosphopeptide, topo I phosphopeptide with phosphorylated S10]

Compound: CC[C@@]1(O)C(=O)OCc2c1cc1n(c2=O)Cc2cc3c(CN(C)C)c(O)ccc3nc2-1 [Topotecan]
inhibition of HIV-1 infection [10]: inhibit both acute and chronic HIV-1 infections

Compound: CC[C@@]1(O)C(=O)OCc2c1cc1n(c2=O)Cc2cc3ccccc3nc2-1 [CPT, camptothecin]
anti-tumor activity [11]: potent anti-tumor activity
topo I degradation ([1]; BT20 cells, in 2 hours): not appreciably degraded
topo I degradation ([1]; BT549 cells, in 2 hours): not appreciably degraded
topo I degradation ([1]; HCC1937-BRCA1 cells): degrades topo I
topo I degradation ([1]; HCC1937 cells): fails to ubiquitinate and degrade topo I
time in which topo I was degraded ([1]; MDAMB231 cells): ≤ 2 h
time in which topo I was degraded ([1]; SUM52 cells): ≤ 2 h
topo I ubiquitination ([6]; BT20 cells): no ubiquitination
topo I ubiquitination ([6]; BT549 cells): no ubiquitination
topo I ubiquitination ([6]; HCC1937 cells (BRCA1 E3 ligase deficient), treated 60 minutes, drug free 30 minutes, MG132): No ubiquitination; also recorded: fail to ubiquitinate topo I; also recorded: fails to ubiquitinate and degrade topo I
topo I ubiquitination ([6]; MDAMB231 cells): ubiquitinated
topo I ubiquitination ([6]; SUM52 cells): ubiquitinated
anti-tumor activity [12]: potent anti-tumor activity
cell growth inhibition (sensitivity to the drug) [7]: highly sensitive
cell growth inhibition (sensitivity to the drug) [8]: resistant
inhibitory activity toward the biosynthesis of nucleic acids [13]: strong inhibitory activity
